This note sets out measurements from patent publication EP0767786B1, “7-ETHER-TAXOL ANALOGS, ANTINEOPLASTIC USE AND PHARMACEUTICAL COMPOSITIONS CONTAINING THEM” (PHARMACIA & UPJOHN COMPANY, priority 1994, dated 1996).

≈ marks a conversion by molar mass, not a printed value. Read-outs that look alike come from different tables or passages of the source.

Experiment [1] relates to L1210 mouse leukemia carcinoma cells. Nature of the experiment: cytotoxicity / inhibition of cell proliferation in L1210 leukemia cells in culture. To be noted: drug concentration required to inhibit cell proliferation to 50% of that of untreated control cells; for IC50: Mus musculus, L1210, read-out: L1210 (IC50 ug/ml). In kind it is cell-based. An excerpt:
(§1) The biological activity of the 7-deoxy-7-ether-taxol compounds (Formula I) of the invention has been confirmed using well known procedures.
The biological activity of the compounds of this invention has been further confirmed using well known procedures against L1210 leukemia and the results set forth in Table I. The results were obtained using standard well known procedure (Li, L.H.; Kuentzel, S.L.; Murch, L.L.; Pschigoga, L.M.; and W.C. Krueger, "Comparative biological and biochemical effects of nogalamycin and its analogs on L1210 leukemia," Cancer Res. 39:4816-4822 (1979)). The results are expressed as an IC50 which is the drug concentration required to inhibit cell proliferation to 50% of that of untreated control cells. Lower numbers indicated greater activity.

For experiment [2], the system named is A2780 human ovarian carcinoma. Nature of the experiment: activity against A2780 human ovarian carcinoma cells. In kind it is cell-based. To be noted: for IC50: read-out: A2780 (IC50 ug/ml). An excerpt: The biological activity of the compounds of this invention has been further confirmed using well known procedures against A2780 human ovarian carcinoma and the results set forth in Table II. The results were obtained using standard well known procedure (Perez, R. P.; O'Dwyer, P. J.; Handel, L. M.; Ozols, R. F.; Hamilton, T. C. Int. J. Cancer 1991, 48, 265, Alley, M.C.; Scudiero, D. A.; Monks, A.; Hursey, M. L; Czerwinski, M. J.; Fine, D. L.; et al. Cancer Res 1988, 48, 589).

Experiment [3] concerns L1210 mouse leukemia carcinoma cells. Nature of the experiment: cytotoxicity / inhibition of cell proliferation in L1210 leukemia cells in culture. Type of experiment: cell-based.
For a further experiment, the system named is tubulin. Nature of the experiment: in vitro tubulin polymerization assay (after Gaskin et al.). Type of experiment: biochemical. To be noted: in vitro at 20°C, compared with taxol.
Excerpt: as §1

Turning to `CC(=O)O[C@H]1C(=O)[C@@]2(C)[C@H]([C@H](OC(=O)c3ccccc3)[C@]3(O)C[C@H](OC(=O)[C@H](O)[C@@H](NC(=O)c4ccccc4)c4ccccc4)C(C)=C1C3(C)C)[C@]1(OC(C)=O)CO[C@@H]1C[C@@H]2O` [taxol, Taxol], the IC50 is 0.017 µg/mL (≈ 19.9 nM) in experiment [1] and 0.0018 µg/mL (≈ 2.11 nM) in experiment [2]. In experiment [3] (read-out: IC90 (90% growth inhibitory concentration)), the IC90 is 17 ng/mL (≈ 19.9 nM).

For the compound `CC(=O)O[C@@]12CO[C@@H]1C[C@H](O)[C@@]1(C)C(=O)[C@H](O)C3=C(C)[C@@H](OC(=O)[C@H](O)[C@@H](NC(=O)OC(C)(C)C)c4ccccc4)C[C@@](O)([C@@H](OC(=O)c4ccccc4)[C@H]21)C3(C)C` [taxotere, reference compound], the figures for the IC50 in experiment [1] and in experiment [2] were 0.004 µg/mL (≈ 4.95 nM) and 0.0007 µg/mL (≈ 0.866 nM), respectively.

“7-[O-(2,2,2-trichloroethoxy)methoxymethyl]-13-(N-Boc-β-phenyl isoserinyl)-baccatin III [Compound 22]”: in experiment [1], the “L1210 (IC50 ug/ml)” value turned out to be 0.0047 µg/mL.

As to “13-(N-Boc-2'-TES-b-phenyl isoserinyl)-baccatin III 7-O-methyl ether [Compound 58]”, the “A2780 (IC50 ug/ml)” value in experiment [2] was 0.00038 µg/mL.

Regarding `COCOC1CC2OCC2(OC(C)=O)C2C(OC(=O)c3ccccc3)C3(O)CC(OC(=O)C(O)C(NC(=O)NC(C)(C)C)c4ccccc4)C(C)=C(C(OC(C)=O)C(=O)C12C)C3(C)C` (stereo not drawn) [Compound 27, 7-(O-methoxymethyl)-13-(N-(t-butylaminocarbonyl)-β-phenylisoserinyl)-baccatin III], the “induce tubulin polymerization in vitro” value with tubulin is “able to induce tubulin polymerization in vitro at 20 °C in a manner very similar to taxol”. The “A2780 (IC50 ug/ml)” value in experiment [2] came out at 0.00004 µg/mL.

For the compound “7-[O-(2,2,2-trichloroethoxy)methyl]-13-(N-Boc-β-phenyl isoserinyl)-baccatin III [Compound 21]”, the “L1210 (IC50 ug/ml)” value in experiment [1] is 0.0024 µg/mL.

On to `CCOCOC1CC2OCC2(OC(C)=O)C2C(OC(=O)c3ccccc3)C3(O)CC(OC(=O)C(O)C(NC(=O)OC(C)(C)C)c4ccccc4)C(C)=C(C(OC(C)=O)C(=O)C12C)C3(C)C` (stereo not drawn) [Compound 4, 7-(O-ethoxymethyl)-13-(N-Boc-β-phenylisoserinyl)-baccatin III], for which the “induce tubulin polymerization in vitro” value in the experiment on tubulin was “able to induce tubulin polymerization in vitro at 20 °C in a manner very similar to taxol”. In addition, the “A2780 (IC50 ug/ml)” value in experiment [2] is 0.0007 µg/mL.

As for `COC1CC2OCC2(OC(C)=O)C2C(OC(=O)c3ccccc3)C3(O)CC(OC(=O)C(O)C(NC(=O)NC(C)(C)C)c4ccccc4)C(C)=C(C(OC(C)=O)C(=O)C12C)C3(C)C` (centres unmarked) [Compound 56, 13-(N-(t-butylaminocarbonyl)-b-phenylisoserinyl)-baccatin III 7-O-methyl ether], in experiment [2], the “A2780 (IC50 ug/ml)” value came out at 0.00034 µg/mL.

As for `CSCOC1CC2OCC2(OC(C)=O)C2C(OC(=O)c3ccccc3)C3(O)CC(OC(=O)C(O)C(NC(=O)OC(C)(C)C)c4ccccc4)C(C)=C(C(OC(C)=O)C(=O)C12C)C3(C)C` (stereo not drawn) [Compound 44, 7-(O-methylthiomethyl)-13-(N-Boc-β-phenylisoserinyl)-baccatin III], in experiment [2], the “A2780 (IC50 ug/ml)” value came to 0.00037 µg/mL.

Take `CSCOC1CC2OCC2(OC(C)=O)C2C(OC(=O)c3ccccc3)C3(O)CC(OC(=O)C(O)C(NC(=O)c4ccccc4)c4ccccc4)C(C)=C(C(OC(C)=O)C(=O)C12C)C3(C)C` (centres unmarked) [Compound 42, 7-(O-methylthiomethyl) taxol]: the “A2780 (IC50 ug/ml)” value in experiment [2] amounted to 0.00047 µg/mL.

As for `CSCOC1CC2OCC2(OC(C)=O)C2C(OC(=O)c3ccccc3)C3(O)CC(OC(=O)C(O)C(NC(=O)NC(C)(C)C)c4ccccc4)C(C)=C(C(OC(C)=O)C(=O)C12C)C3(C)C` (centres unmarked) [Compound 55, 13-(N-(t-butylaminocarbonyl)-b-phenylisoserinyl)-baccatin III 7-O-methylthiomethyl ether], the “A2780 (IC50 ug/ml)” value in experiment [2] came out at 0.00025 µg/mL.

`CC(=O)OC1C(=O)C2(C)C(OCSc3ccccc3)CC3OCC3(OC(C)=O)C2C(OC(=O)c2ccccc2)C2(O)CC(OC(=O)C(O)C(NC(=O)c3ccccc3)c3ccccc3)C(C)=C1C2(C)C` (centres unmarked) [Compound 46, 7-(O-phenylthiomethyl) taxol]: the “A2780 (IC50 ug/ml)” value in experiment [2] turned out to be 0.0016 µg/mL.

Take `COCOC1CC2OCC2(OC(C)=O)C2C(OC(=O)c3ccccc3)C3(O)CC(OC(=O)C(O)C(NC(=O)OC(C)(C)C)c4ccccc4)C(C)=C(C(OC(C)=O)C(=O)C12C)C3(C)C` (stereo not drawn) [Compound 8, 7-(O-methoxymethyl)-13-(N-Boc-2'-β-phenylisoserinyl)-baccatin III]: the “L1210 (IC50 ug/ml)” value in experiment [1] turned out to be 0.0011 µg/mL. Moreover, the “IC90 (90% growth inhibitory concentration)” value in experiment [3] worked out at 0.0011 micrograms/ml.

In the case of `CCSC(C)OC1CC2OCC2(OC(C)=O)C2C(OC(=O)c3ccccc3)C3(O)CC(OC(=O)C(O)C(NC(=O)c4ccccc4)c4ccccc4)C(C)=C(C(OC(C)=O)C(=O)C12C)C3(C)C` (centres unmarked) [Compound 49, 7-[O-ethyl(1-thioethyl)] Taxol], the “A2780 (IC50 ug/ml)” value in experiment [2] was found to be 0.0057 µg/mL.

`CC(=O)OC1C(=O)C2(C)C(OCOCc3ccccc3)CC3OCC3(OC(C)=O)C2C(OC(=O)c2ccccc2)C2(O)CC(OC(=O)C(O)C(NC(=O)OC(C)(C)C)c3ccccc3)C(C)=C1C2(C)C` (stereo not drawn) [Compound 10, 7-(O-benzyloxymethyl)-13-(N-Boc-β-phenylisoserinyl)-baccatin III]: in experiment [1], the “L1210 (IC50 ug/ml)” value was determined as 0.001 µg/mL.

`CCOCOC1CC2OCC2(OC(C)=O)C2C(OC(=O)c3ccccc3)C3(O)CC(OC(=O)C(O)C(NC(=O)NC(C)(C)C)c4ccccc4)C(C)=C(C(OC(C)=O)C(=O)C12C)C3(C)C` (stereo not drawn) [Compound 14, 7-(O-ethoxymethyl)-13-(N-(t-butylaminocarbonyl)-β-phenylisoserinyl)-baccatin III]: the “L1210 (IC50 ug/ml)” value in experiment [1] stood at 0.0014 µg/mL. Also, in experiment [2], the “A2780 (IC50 ug/ml)” value was found to be 0.00007 µg/mL.

For `COC1CC2OCC2(OC(C)=O)C2C(OC(=O)c3ccccc3)C3(O)CC(OC(=O)C(O)C(NC(=O)c4ccccc4)c4ccccc4)C(C)=C(C(OC(C)=O)C(=O)C12C)C3(C)C` (centres unmarked) [Compound 47, 7-O-methyl Taxol], the “A2780 (IC50 ug/ml)” value came out at 0.0007 µg/mL in experiment [2] and 0.00044 µg/mL in experiment [2] (retest).

For `COCCOCOC1CC2OCC2(OC(C)=O)C2C(OC(=O)c3ccccc3)C3(O)CC(OC(=O)C(O)C(NC(=O)OC(C)(C)C)c4ccccc4)C(C)=C(C(OC(C)=O)C(=O)C12C)C3(C)C` (stereo not drawn) [Compound 6, 7-(O-methoxyethoxymethyl)-13-(N-Boc-β-phenylisoserinyl)-baccatin III], the “L1210 (IC50 ug/ml)” value in experiment [1] amounted to 0.0023 µg/mL.
